The subject of this assay is Bcl-2. In words: Intracellular levels of Bcl-2 in B16M-F10/Tet-Bcl-2 cells (enzyme immunoassay). Particulars: same exposure, none 160 ± 25. It counts as cell-based, mouse. The source says:
The Tet-off gene expression system (Clontech, Palo Alto, Calif., USA) was used for inserting the mouse bcl-2 gene and transfecting the B16M-F10 cells, as described previously (26) and following the manufacturer's instructions. The protein Bcl-2 was quantified in the soluble cytosolic fraction by enzyme immunoassay (27) using a test based on a monoclonal antibody from Sigma (San Luis, Mo., USA) (a Bcl-2 unit was defined as the amount of Bcl-2 protein in 1000 non-transfected B16M-F10 cells).
This methodology makes it possible for the effect of PTER and QUER to be studied in vivo. For this purpose, mice were inoculated with B16M-F10 control cells or B16M-F10/Tet-Bcl-2 which overexpressed Bcl-2. […] The number of adhering cells shown in the table was calculated at 60 minutes postinjection (no significant differences were found when the measurements were effected at 30, 120, 180, 240 or 360 minutes postinjection, data not shown). The number of intact cells was calculated at 6 hours postinjection. […] The growth of metastases in the liver was evaluated as stated in the corresponding section of the description, and in this case the mice were treated daily (×10 days) with t-PTER and/or QUER (20 mg/kg of body weight) administered i.v. (the data are mean values±SD corresponding to 25 mice per group). […]

Structures are written as SMILES. Marks after values point to notes of the source that are not given here.

As for `COc1cc(/C=C/c2ccc(O)cc2)cc(OC)c1` [PTER, pterostilbene], the “Intracellular levels of Bcl-2 before inoculation” value is 151 ± 18^++ units/mg protein.

For `O=c1c(O)c(-c2ccc(O)c(O)c2)oc2cc(O)cc(O)c12` [QUER, quercetin], the “Intracellular levels of Bcl-2 before inoculation” value was 125 ± 13*^++ units/mg protein.

Values taken from US8227510B2, “Combine use of pterostilbene and quercetin for the production of cancer treatment medicaments” (Universitat de Valencia, priority 2004, dated 2012).
